Data published in patent publication US20140303082A1, “SELECTIVE GPCR LIGANDS” (Medical Research Council, priority 2011, published 2014).
Numbering of substitutions follows the chain as printed. Where a SMILES comes first, the peptide text is derived from it. Where no end group is shown, it is not given here.

Experiments:
[1] = target: T1, AT1aR (Rattus norvegicus, UniProt P25095); assay: Radioligand binding assays (saturation and competition), HEK293T membranes; settings: for Ki: competition vs 2 nM [125I]-AII, 2 hours on ice, Cheng and Prusoff, receptor printed AT1R
T1 construct: expressed in transfected cells; host or cells: HEK293T, transient, crude membranes
T1 sequence (P25095 1-359): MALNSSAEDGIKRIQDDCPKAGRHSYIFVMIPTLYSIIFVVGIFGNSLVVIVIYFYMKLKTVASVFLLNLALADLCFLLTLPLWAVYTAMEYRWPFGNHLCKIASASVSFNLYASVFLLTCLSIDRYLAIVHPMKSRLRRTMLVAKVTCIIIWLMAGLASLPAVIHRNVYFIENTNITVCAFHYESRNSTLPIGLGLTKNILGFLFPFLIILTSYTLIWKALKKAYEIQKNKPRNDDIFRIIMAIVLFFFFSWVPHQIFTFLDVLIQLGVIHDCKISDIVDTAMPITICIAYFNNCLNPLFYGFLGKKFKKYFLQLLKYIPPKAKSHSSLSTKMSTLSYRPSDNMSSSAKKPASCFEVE
Description: (§1) Cell culture and transient transfection. HEK293T cells were maintained at 37° C. in Dulbecco's modified Eagle's medium (DMEM) supplemented with 10% (v/v) fetal bovine serum (FBS), 2 mM glutamine, 100 U/ml penicillin, and 100 μg/ml streptomycin. Cells were seeded into 10 cm dish and 24 hours later were transfected with either AT1aR (pcDNA3.1) or AT2R (pcDNAI/Amp) using GeneJuice transfection reagent according to the manufacturer's instructions. Cells were harvested 48 hours after transfection. A pellet of transfected HEK293T cells (2×10^6 cells) was resuspended in ice-cold 0.5 ml binding buffer (50 mM Tris-HCl pH 7.4, 100 mM NaCl, 10 mM MgCl2, 1 mM EDTA, 0.2% BSA and 0.025% Bacitracin) containing protease inhibitors (Complete™, Roche). The cells were transferred to a 1.5 ml microcentrifuge tube and subjected to two cycles of freeze-thawing. The lysed cells were sheared by passaging seven times through a 26-gauge needle and the crude membranes were pelleted by ultracentrifugation (60 min, 120,000×g, 4° C.). The crude membranes were then resuspended in a final volume of 0.2 ml ice-cold binding buffer containing protease inhibitors corresponding to a protein concentration 3.3 μg/μl as determined by the amido black protein assay^45.
(§2) Radioligand binding assays. […] Non-specific binding was determined in presence of 6 μM cold AII. […] Samples were incubated for 2 hours at 4° C. Receptor-bound and free radioligand were separated by filtration through Whatman GF/B filters, pre-soaked with 0.3% polyethylamine. The filters were washed with 5 ml of ice-cold binding buffer and transferred to scintillation tubes. Radioactivity was counted on a Beckman LS6000 liquid scintillation counter and data were analyzed by non-linear regression using Prism software (GraphPad).

[2] = target: T2, AT2R-Y189A (Homo sapiens, UniProt P50052, Y189A); assay: Radioligand binding assays, AT2R mutant; settings: competition vs 2 nM [125I]-AII, 2 hours on ice, Cheng and Prusoff
T2 construct: expressed in transfected cells; host or cells: HEK293T, transient, crude membranes
T2 sequence (P50052 1-363 Y189A): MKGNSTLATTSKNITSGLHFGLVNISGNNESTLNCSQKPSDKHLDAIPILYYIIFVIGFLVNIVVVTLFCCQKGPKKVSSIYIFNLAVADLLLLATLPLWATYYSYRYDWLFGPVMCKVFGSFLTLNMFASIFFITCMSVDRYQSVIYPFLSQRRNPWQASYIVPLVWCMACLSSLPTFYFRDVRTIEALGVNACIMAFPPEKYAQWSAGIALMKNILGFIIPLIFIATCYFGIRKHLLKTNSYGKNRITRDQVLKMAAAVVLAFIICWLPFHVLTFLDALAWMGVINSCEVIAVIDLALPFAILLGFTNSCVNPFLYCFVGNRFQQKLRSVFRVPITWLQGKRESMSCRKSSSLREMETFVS
Description: (§3) Mutagenesis. AT2R mutants were generated as described elsewhere^44.
as §1, §2

[3] = target: T3, AT2R-F272H (Homo sapiens, UniProt P50052, F272H); assay: Radioligand binding assays, AT2R mutant; settings: competition vs 2 nM [125I]-AII, 2 hours on ice, Cheng and Prusoff
T3 construct: expressed in transfected cells; host or cells: HEK293T, transient, crude membranes
T3 sequence (P50052 1-363 F272H): T2 sequence (P50052 1-363 Y189A) with A189Y, F272H
Description: as §3, §1, §2

[4] = target: T4, AT2R-Y189N (Homo sapiens, UniProt P50052, Y189N); assay: Radioligand binding assays, AT2R mutant; settings: competition vs 2 nM [125I]-AII, 2 hours on ice, Cheng and Prusoff
T4 construct: expressed in transfected cells; host or cells: HEK293T, transient, crude membranes
T4 sequence (P50052 1-363 Y189N): T2 sequence (P50052 1-363 Y189A) with A189N
Description: as §3, §1, §2

[5] = target: T5, AT2R-F272A (Homo sapiens, UniProt P50052, F272A); assay: Radioligand binding assays, AT2R mutant; settings: competition vs 2 nM [125I]-AII, 2 hours on ice, Cheng and Prusoff
T5 construct: expressed in transfected cells; host or cells: HEK293T, transient, crude membranes
T5 sequence (P50052 1-363 F272A): T2 sequence (P50052 1-363 Y189A) with A189Y, F272A
Description: as §3, §1, §2

[6] = target: AT2R wild type; assay: Radioligand binding assays (saturation and competition), HEK293T membranes
Description: as §1, §2

[7] = cis/trans isomer population in aqueous solution by NMR; format: physicochemical; settings: cis amide bond at residue 6-Pro7, aqueous solution
Source text: Peptide synthesis and sample preparation. The synthesis of the following peptides: AII (D^1-R^2—V^3—Y^4—I^5—H^6—P^7—F^8); [Y]^6-AII (D^1-R^2—V^3—Y^4—I^5—Y^6—P^7—F^8); [4-OPO3H2—F]^6-AII, (D^1-R^2—V^3—Y^4—I^5-(4-OPO3H2—F)^6—P^7—F^8), [F]^6-AII, (D^1-R^2—V^3—Y^4—I^5—F^6—P^7—F^8) and [4-NO2—F]^6-AII, (D^1-R^2—V^3—Y^4—I^5-(4-NO2—F)^6—P^7—F^8) was achieved using Fmoc/tBu methodology. 2-Chlorotrityl chloride resin and N^α-Fmoc (9-fluorenylmethyloxycarbonyl) amino acids were used for the synthesis. Peptide purity was assessed by analytical HPLC (Nucleosil-120 C18, reversed phase, 250×4.0 mm), mass spectrometry (FABMS, ESIMS) and amino acid analysis. The samples were prepared for NMR spectroscopy by dissolving the peptide in 0.01 M KPi buffer (pH=4), containing 0.02 M KCl. 2,2-dimethyl-2-sila-pentane sulfonate (DSS) was added to a concentration of 1 mM as an internal chemical shift reference. Peptide concentration was commonly 4 mM in 90% ^1H2O/10% ^2H2O. Trace amounts of NaN3 were added as a preservative.
Inter-proton distances for AII were derived by measuring cross-peak intensities in the NOESY spectra. Intensities were calibrated to give a set of distance constrains using the NMRVIEW software package. NOEs cross peaks were separated into three distance categories according to their intensity. […]

[8] = target: T6, AT2R (Homo sapiens, UniProt P50052); settings: relative to AII; cited from earlier work
T6 sequence (P50052 1-363): T2 sequence (P50052 1-363 Y189A) with A189Y

[9] = tested on: AT1aR; settings: relative to AII; cited from earlier work

Row | Molecule | lower affinity for AT2R in comparison to [Y]^6-AII ([6]; unpublished data) | Ki [1] | Ki [2] | Ki [3] | Ki [4] | Ki [5] | %cis [7] | further results
1 | CC[C@H](C)[C@H](NC(=O)[C@H](Cc1ccc(O)cc1)NC(=O)[C@@H](NC(=O)[C@H](CCCNC(=N)N)NC(=O)[C@@H](N)CC(=O)O)C(C)C)C(=O)N[C@@H](Cc1ccc(OP(=O)(O)O)cc1)C(=O)N1CCC[C@H]1C(=O)N[C@@H](Cc1ccccc1)C(=O)O [[4-OPO3H2—F]^6-AII, D^1-R^2—V^3—Y^4—I^5-(4-OPO3H2—F)^6—P^7—F^8] (HELM PEPTIDE1{D.R.V.Y.I.[O=C([C@H](Cc1ccc(OP(=O)(O)O)cc1)N[*:1])[*:2]].P.F}$$$$V2.0) |  | > 2500 nM | 51 nM | 21 nM | 200 nM | 250 nM |  | 
2 | CC[C@H](C)[C@H](NC(=O)[C@H](Cc1ccc(O)cc1)NC(=O)[C@@H](NC(=O)[C@H](CCCNC(=N)N)NC(=O)[C@@H](N)CC(=O)O)C(C)C)C(=O)N[C@@H](Cc1c[nH]cn1)C(=O)N1CCC[C@H]1C(=O)N[C@@H](Cc1ccccc1)C(=O)O [[^125I]-AII, reference compound] |  |  |  |  |  |  |  | Kd ([6]; saturation assay, 2 hours on ice): 2.3 ± 0.3 nM
3 | DRVYIYPF [[Y]^6-AII] |  | > 2500 nM | 12 nM | 16 nM | 10 nM | 16 nM |  | 
4 | Pro7Gly mutation in AII: literature AII analogue with Pro7 replaced by Gly (ref 16) (DRVYIHGF; Angiotensin-2; UniProt P01019 25-32, looked up, variant P7G) |  |  |  |  |  |  |  | affinity for the AT2R (in words) [8]: almost retained its affinity; lower affinity for AT1aR [9]: 150 times

More lines, main results first:

Row | lower affinity for AT2R in comparison to [Y]^6-AII ([6]; unpublished data) | Molecule | Ki [1] | Ki [2] | Ki [3] | Ki [4] | Ki [5] | %cis [7] | further results
5 | 300 times | D^1-R^2—V^3—Y^4—I^5-(4-NO2—F)^6—P^7—F^8 [[4-NO2—F]^6-AII] |  |  |  |  |  | ~5% | binding / affinity for AT1aR (in words) [1]: high affinity (nM)
6 | more than 50 times | D^1-R^2—V^3—Y^4—I^5—F^6—P^7—F^8 (DRVYIFPF; Angiotensin-2; UniProt P01019 25-32, looked up, variant H6F) [[F]^6-AII, AII analogue with phenylalanine at position 6] |  |  |  |  |  | ~20% | affinity for AT1aR compared with AT2R (in words) ([6]; unpublished data): same affinity for both AT1aR and AT2R
